Test results reported in ChEMBL document CHEMBL3600350, “Peptide HIV fusion inhibitors: modifications and conjugations” (Medchemcomm, 2014).
Numbered stars: 1 amine (or outer) side, 2 acyl side, 3 side chain; on linkers, the order of the positions; unused ones are H or OH. Square brackets hold non-standard residues; d marks the D form. Peptide text beside a SMILES is read from it. X1 = CCCCCCCCCCCCCCCC(=O)NC(=O)CC[C@H](N[*:1])C(=O)[*:2]

Test system: not listed separately
Assay: Inhibition of HIV-1 HXBc2 env-mediated cell fusion between viral infected human Jurkat cells and non infected human Jurkat E6-1 cells after 6 hrs by DiI/DiD probe-based flow cytometric analysis
Conditions: Human immunodeficiency virus 1, HXBc2, Jurkat

| Compound | IC50 [nM] |
| --- | --- |
| CCCCCCCCCCCCCCCC(=O)NC(=O)CC[C@H](N)C(=O)N[C@@H](CC(C)C)C(=O)N[C@@H](CC(C)C)C(=O)N[C@@H](CO)C(=O)NCC(=O)N[C@H](C(=O)N[C@H](C(=O)N[C@@H](CCC(N)=O)C(=O)N[C@@H](CCC(N)=O)C(=O)N[C@@H](CCC(N)=O)C(=O)N[C@@H](CC(N)=O)C(=O)N[C@@H](CC(N)=O)C(=O)N[C@@H](CC(C)C)C(=O)N[C@@H](CC(C)C)C(=O)N[C@@H](CCCNC(=N)N)C(=O)N[C@@H](C)C(=O)N[C@H](C(=O)N[C@@H](CCC(=O)O)C(=O)N[C@@H](C)C(=O)N[C@@H](CCC(N)=O)C(=O)N[C@@H](CCC(N)=O)C(=O)N[C@@H](Cc1c[nH]cn1)C(=O)N[C@@H](CC(C)C)C(=O)N[C@@H](CC(C)C)C(=O)N[C@@H](CCC(N)=O)C(=O)O)[C@@H](C)CC)C(C)C)[C@@H](C)CC (H-[X1]LLSGIVQQQNNLLRAIEAQQHLLQ-OH) | 10 |
| H-LLSGIVQQQNNLLRAIEAQQHLLQ-OH | 338 |

Test system: Human immunodeficiency virus 1
Assay: Antiviral activity against HIV-1 HXB2 assessed as inhibition of viral infection in human TZM-bl cells after 18 hrs by steady-glo luciferase reporter gene assay
Format: functional, organism-based
Conditions: Human immunodeficiency virus 1, HXB2, TZM-bl

| Compound | IC50 [nM] |
| --- | --- |
| CC[C@H](C)[C@H](NC(=O)CNC(=O)[C@H](Cc1c[nH]c2ccccc12)NC(=O)[C@@H](NC(=O)[C@@H](NC(=O)[C@H](CC(C)C)NC(=O)[C@H](CCC(N)=O)NC(=O)[C@H](CC(C)C)NC(=O)[C@@H](N)CC(C)C)[C@H](C)O)C(C)C)C(=O)N[C@@H](CCCCN)C(=O)N[C@@H](CCC(N)=O)C(=O)N[C@@H](CC(C)C)C(=O)N[C@@H](CCC(N)=O)C(=O)N[C@@H](C)C(=O)N[C@@H](CCCNC(=N)N)C(=O)N[C@H](C(=O)N[C@@H](CC(C)C)C(=O)O)[C@@H](C)CC | > 4000 |
| CCCCCCCCCCCCCCCC(O)C(CO)NC(=O)NC(=O)[C@H](CCCCN)NC(=O)[C@H](CC(N)=O)NC(=O)[C@H](CCCCN)NC(=O)[C@H](CCC(=O)O)NC(=O)[C@H](CCC(N)=O)NC(=O)[C@H](CCC(N)=O)NC(=O)[C@H](CC(N)=O)NC(=O)[C@H](CCC(N)=O)NC(=O)[C@H](CO)NC(=O)[C@H](CCC(=O)O)NC(=O)[C@H](CCC(=O)O)NC(=O)[C@@H](NC(=O)[C@H](CC(C)C)NC(=O)[C@H](CO)NC(=O)[C@H](Cc1c[nH]cn1)NC(=O)[C@@H](NC(=O)[C@H](CC(C)C)NC(=O)[C@H](CO)NC(=O)[C@@H](NC(=O)[C@@H](N)Cc1ccc(O)cc1)[C@H](C)O)[C@@H](C)CC)[C@@H](C)CC (some centres undefined) | 350 |
| CCCCCCCCCCCCCCCC(O)C(CO)NC(=O)N[C@@H](CC(C)C)C(=O)N[C@@H](CC(C)C)C(=O)N[C@@H](CCC(N)=O)C(=O)N[C@@H](CC(C)C)C(=O)N[C@H](C(=O)N[C@H](C(=O)N[C@@H](Cc1c[nH]c2ccccc12)C(=O)NCC(=O)N[C@H](C(=O)N[C@@H](CCCCN)C(=O)N[C@@H](CCC(N)=O)C(=O)N[C@@H](CC(C)C)C(=O)N[C@@H](CCC(N)=O)C(=O)N[C@@H](C)C(=O)N[C@@H](CCCNC(=N)N)C(=O)N[C@H](C(=O)N[C@@H](CC(C)C)C(=O)O)[C@@H](C)CC)[C@@H](C)CC)C(C)C)[C@H](C)O (some centres undefined) | 121 |
| CCCCCCCCCCCCCCCC(O)C(CO)NCNC(=O)[C@@H](CCCCN)NC(=O)[C@H](CC(C)C)NC(=O)[C@@H](NC(=O)[C@H](CCCNC(=N)N)NC(=O)[C@H](C)NC(=O)[C@H](CCC(N)=O)NC(=O)[C@H](CC(C)C)NC(=O)[C@H](CCC(N)=O)NC(=O)[C@H](CCCCN)NC(=O)[C@@H](NC(=O)CNC(=O)[C@H](Cc1c[nH]c2ccccc12)NC(=O)[C@@H](NC(=O)[C@@H](NC(=O)[C@H](CC(C)C)NC(=O)[C@H](CCC(N)=O)NC(=O)[C@H](CC(C)C)NC(=O)[C@@H](N)CC(C)C)[C@H](C)O)C(C)C)[C@@H](C)CC)[C@@H](C)CC (some centres undefined) | 287 |
| CC[C@H](C)[C@H](NC(=O)[C@H](CC(C)C)NC(=O)[C@H](CO)NC(=O)[C@H](Cc1c[nH]cn1)NC(=O)[C@@H](NC(=O)[C@H](CC(C)C)NC(=O)[C@H](CO)NC(=O)[C@@H](NC(=O)[C@@H](N)Cc1ccc(O)cc1)[C@H](C)O)[C@@H](C)CC)C(=O)N[C@@H](CCC(=O)O)C(=O)N[C@@H](CCC(=O)O)C(=O)N[C@@H](CO)C(=O)N[C@@H](CCC(N)=O)C(=O)N[C@@H](CC(N)=O)C(=O)N[C@@H](CCC(N)=O)C(=O)N[C@@H](CCC(N)=O)C(=O)N[C@@H](CCC(=O)O)C(=O)N[C@@H](CCCCN)C(=O)N[C@@H](CC(N)=O)C(=O)N[C@@H](CCCCN)C(=O)O | > 4000 |

Test system: Human immunodeficiency virus 1
Assay: Antiviral activity against HIV-1 HXB2 assessed as inhibition of viral fusion with human TZM-bl cells after 6 hrs by luciferase reporter gene assay
Format: functional, organism-based
Conditions: Human immunodeficiency virus 1, HXB2, TZM-bl

| Compound | IC50 [nM] |
| --- | --- |
| CCCCCCCCCCCCCCCC(=O)[C@H](CCCCN)NC(=O)[C@H](CCC(=O)O)NC(=O)[C@H](CC(C)C)NC(=O)[C@H](CC(C)C)NC(=O)[C@H](CCC(=O)O)NC(=O)[C@H](CCC(N)=O)NC(=O)[C@H](CCC(=O)O)NC(=O)[C@H](CC(N)=O)NC(=O)[C@H](CCCCN)NC(=O)[C@H](CCC(=O)O)NC(=O)[C@H](CCC(N)=O)NC(=O)[C@H](CCC(N)=O)NC(=O)[C@H](CC(N)=O)NC(=O)[C@H](CCC(N)=O)NC(=O)[C@H](CO)NC(=O)[C@H](CCC(=O)O)NC(=O)[C@H](CCC(=O)O)NC(=O)[C@@H](NC(=O)[C@H](CC(C)C)NC(=O)[C@H](CO)NC(=O)[C@H](Cc1c[nH]cn1)NC(=O)[C@@H](NC(=O)[C@H](CC(C)C)NC(=O)[C@H](CO)NC(=O)[C@@H](NC(=O)[C@@H](N)Cc1ccc(O)cc1)[C@H](C)O)[C@@H](C)CC)[C@@H](C)CC | 1.3 |
| H-YTSLIHSLIEESQNQQEKNEQELLE-OH | 2860 |
